The values that follow come from patent US20260327211A1, “MODULATORS OF A POTASSIUM CHANNEL AND OF TRPV1 CHANNEL AND USES THEREOF” (Bsense Bio Therapeutics Ltd., priority 2023, published 2026).

Data set [1] can be described thus: Human liver microsome metabolic stability. To be noted: human liver microsomes; for half-life at 1 µM: human, liver microsomes, read-out: HLM T1/2; for HLM T1/2: 1 µM. It counts as in vitro ADME. An excerpt: Liver microsomes which are subcellular particles derived from endoplasmic reticulum of hepatic cells were used for evaluating the tested compounds. These particles are rich in drug metabolizing enzymes, including the cytochrome p-450 family. Liver microsomes are a recommended test system for various in vitro drug metabolism and pharmacokinetics (DMPK) studies. CLint values lower than […] are considered suitable for drug development.
Liver Microsome Metabolic Stability Assay (NADPH): The liver microsome stability assay was evaluated through pre-incubation with HLMs. A liver microsome mixture (pooled from multiple donors) at a concentration of 0.5 mg/mL, and the test compound at a concentration of 1 μM, were warmed in the presence of a NADPH regenerating system (about 1.0 mM) at 37° C. Positive controls, including testosterone (a CYP3A4 substrate), propafenone (a CYP2D6 substrate), and diclofenac (a CYP2C9) substrate, were concurrently incubated with the HLMs, in the presence of the NADPH regenerating system (1.0 mM). Samples were extracted during incubation at multiple intervals: 0, 5, 15, 30, 45 and 60 minutes. To terminate the reactions, the samples were promptly mixed with cooled acetonitrile that included an internal standard (IS). An additional compound was incubated with the HLMs in the absence of the NADPH regeneration system, from which a sample was taken at the 60-minute interval.
The clearance of the test compound in the samples was subsequently analyzed by LC-MS/MS based on the peak area ratios of the analyte to the IS.
The following equation was used to calculate the microsome clearance: […]
Liver weight: 40 grams/kg, 30 grams/kg, 32 grams/kg, 20 grams/kg and 88 grams/kg, for rat, monkey, dog, human and mouse, respectively.

The test system of the next data set is CYP3A4. In words: CYP inhibition / time-dependent inhibition, CYP3A4_Midazolam. Format: in vitro ADME, human. To be noted: role: inhibitor; substrate midazolam 2.0 μM; CYP TDI ratio. On the procedure: The time-dependent inactivation potency of the test compound to CYP enzymatic activities was assessed by the pre-incubation of the human liver microsomes with the test compound in the presence and absence of NADPH, followed by the incubation with the discrete marker substrates, as follows.
Pre-incubation with human liver microsomes (HLMs): The TDI inactivation potency on CYP enzymatic activities was evaluated through pre-incubation with HLMs (Corning). A liver microsome mixture at a concentration of 0.1 mg/mL, and the test compound at 8 different concentrations (0, 0.05, 0.165, 0.5, 1.65, 5.0, 16.5, or 50.0 μM) was warmed at 37° C. for 10 minutes. Concurrently, a set of known time-dependent inactivators was also prepared in duplicate for comparison. Following this, NADPH (1.0 mM) was added to one group (Group 1), and an equal volume of potassium phosphate buffer to the second group (Group 2), marking the beginning of a 30-minute pre-incubation at 37° C.
Incubation: After pre-incubation, the marker substrate, or marker substrate plus NADPH was added to the mixture, thereby initiating the incubation. The duration of the incubation was dependent on the type of CYP isoform being evaluated. For example, with the CYP3A isoform, the mixture was incubated over 3 minutes utilizing midazolam as the marker substrate (2.0 μM), verapamil as the standard inactivator (3.5 μM).
Termination of Reaction: Following the incubation, ice-cooled acetonitrile containing the internal standard (IS) was added to halt the reactions. Metabolites generated from the marker substrates were then measured via LC-MS/MS, assessed based on peak area ratios of the analyte to IS.

Data set [2] is described as follows: Log D, 1-octanol/buffer shake flask. To be noted: pH 7.4. Format: physicochemical. As for the experimental part: The Log D assay was a miniaturized 1-octanol/buffer shake flask method followed by LC/MS/MS analysis, as follows.
The test compounds or control compounds Nadolol, Chlorpromazine Hydrochloride and Propranolol Hydrochloride were dissolved in 100% DMSO to obtain 10 mM solutions, which were transferred to 96-well polypropylene cluster tubes; 2 μL/well. 1-octanol saturated with 0.1 M phosphate buffer (149 μL/well) and 0.1 M phosphate buffer saturated with 1-octanol (149 μL/well) were added to the tubes, respectively, and each tube was vigorously mixed for 2 minutes and then shaked at a speed of 800 rpm at room temperature for 1 hour, followed by centrifugation at 4000 rpm for 5 minutes at room temperature. Thereafter, for the test compounds and the Chlorpromazine Hydrochloride and Propranolol Hydrochloride, the sample of the buffer layer was diluted by a factor of 50-fold and the sample of 1-octanol layer was diluted by a factor of 2000-fold with internal standard (IS) solution. For Nadolol, the sample of the buffer layer was diluted by a factor of 1000-fold and the sample of 1-octanol layer was diluted by a factor of 400-fold with internal standard (IS) solution. The samples were analyzed using a triple quadrupole mass spectrometer. Peak areas were corrected by dilution factors and embedded internal standard, and the ratio of the corrected peak areas was used to calculate the Log D value. The Log D value for each compound will be calculated by the following equation: […]

The target in the next data set is T1, hTRPV1 (Homo sapiens, UniProt Q8NER1).
T1 construct: CDS of NM_080704.4, inserted into the multiple cloning site of pcDNA3.1(+); host or cells: CHO/hKv7.2/3
In words: TRPV1 HCS, Fluo-8 calcium flux, capsaicin activation, CHO cells expressing hTRPV1. It counts as cell-based. To be noted: cells expressing TRPV1; read-out: TRPV1 IC50. On the procedure:
Cell culture: Chinese hamster ovary (CHO) cell-line cells with constitutive expression of human hTRPV1 channels (B'SYS GmbH, Switzerland) were cultured in F-12 nutrient mixture (Biological Industries) supplemented with 10% fetal bovine serum (Biological Industries) and 1% penicillin-streptomycin (Biological Industries) in a humidified 5% CO2 incubator at 37° C. To maintain the stable expression of hTRPV1, antibiotic selection (G418 500 μg/ml) was applied.
High content screen (HCS) using Fluo-8 No Wash Calcium flux Assay Kit: Fluo-8 No Wash Calcium Assay Kit (Abcam, ab112129) was used with CHO stably or transiently expressing TRPV1 to screen compounds against the hTRPV1 ion channel target. The cells were pre-loaded with Fluo-8AM which is membrane permeable. The AM groups of the Fluo-8AM were then being cleaved by intracellular esterase, trapping the Fluo8 in the cell. […] The relative fluorescence signal was calculated following background subtraction, comparing the fluorescence at each time point to its maximal level measured following Ionomycin application in the end.
According to optimization process to achieve uniform and consistent screening condition of molecules the following protocol was established: Cells were seeded in 384-well, black-walled, clear-bottomed, at a density of 5,000 cells per well 24 h before the assay conductance and incubated overnight in their normal growth medium. On the experiment day the medium was replaced in each well with HBSS, HEPES, and compound/vehicle (0.2% DMSO). Dye solution (prepared according to the manufacturer) was added to the wells and plates are incubated for 1.5 h light-protected in room temperature. The Tecan Spark plate reader injectors were then primed with capsaicin and Ionomycin for channel activation and data normalization, respectively. […] To calculate IC50 values, the data was fitted to sigmoidal regression line using Prism GraphPad. The fitting was constrained to a minimum of 0 and a maximal response of about 1 unless a different maximal response could be identified.
A general note: Calcium flux is commonly read through the fluorescence of an indicator in the cells.

The target of another data set is T2, hKv7.2/3 (Homo sapiens, UniProt O43525+O43526).
T2 construct: host or cells: CHO
In words: Kv7.2/7.3 HCS, FLIPR potassium (thallium) assay, CHO/hKv7.2/3. It counts as cell-based. To be noted: Table 1; read-out: Kv7.2/7.3 IC50. As for the experimental part: Cell culture: Chinese hamster ovary (CHO) cell-line cells with a constitutive expression of human Kv7.2/3 channels (B'SYS GmbH, Switzerland) were cultured in F-12 nutrient mixture (Biological Industries) supplemented with 10% fetal bovine serum (Biological Industries) and 1% penicillin-streptomycin (Biological Industries) in a humidified 5% CO2 incubator at 37° C. To maintain the stability of human Kv7.2/7.3 expression antibiotic selection was added (Puromycin 5 μg/ml).
High content screen (HCS) using FLIPR Potassium Assay Kit: A FLIPR Potassium Assay Kit (R8222 FLIPR Potassium Assay Explorer Kits, Molecular Devices) was used with the CHO/hKv7.2/3 cell line to screen molecules against the hKv7.2/7.3 ion channel target. The assay exploits the permeability of thallium ions (Tl+) through potassium (K+) channels. In this assay, Tl+ indicator dye is used to produce a bright fluorescent signal upon the binding to Tl+ conducted through the potassium channels. The intensity of the Tl+ signal is proportional to the number of potassium channels in the open state. Therefore, it provides a functional indication of the potassium channel activity. To activate the voltage-gate potassium channels, the cells were stimulated with a mixture of K+ and Tl+ to depolarize the cell membrane. The fluorescence increase in the assay represents the influx of Tl+ into the cell specifically through the potassium channel, providing a functional read-out of hKv7.2/3 activity using a fluorescent plate reader coupled with injectors used to activate the channels.
According to optimization process to achieve uniform and consistent screening conditions the following protocol was established: Cells were seeded in 384-well, black-walled, clear-bottomed Greiner #781091, at a density of 5000 cells per well 24 hours before the assay conductance and incubated overnight in their normal growth medium. On the experiment day the medium was replaced with HBSS, HEPES, and the test compound/vehicle (0.2% DMSO). Dye solution (prepared according to the manufacturer) was added to the plates, which were incubated for 1.5 h light-protected in room temperature. Tecan Spark reader plate injectors were primed with Tl+(1 mM Tl2SO4) or Tl++K+(1 mM Tl2SO4; 5 mM K2SO4) for channel activation and data correction. […] To calculate EC50 values, the data was fitted to sigmoidal regression using Prism GraphPad. The fitting was constrained to a minimum of 1 and a maximal response of about 3.6 unless a different maximal response could be clearly identified.

The nature of a further data set: Kinetic solubility. To be noted: hhbs buffer, aqueous buffer, Table 1; read-out: Kinetic Sol. It counts as physicochemical. As for the experimental part: Solubility measurements were performed prior to each in vitro assay to ensure accurate dose response and reproducibility. Briefly, each compound was dissolved to 60 mM in DMSO and calibration curve was performed from 1.5-200 μM using absorbance spectra analysis and determination of λmax. Calibration curve served as the readout for all following assays. The 60 mM stock solution was used to make a 120 μM target concentration of 0.2% DMSO in the appropriate buffer of the in vitro related assay (i.e. HHBS buffer). Solubilized compounds were vortex for 10 minutes followed by centrifugation for 15 minutes in 5000 RPM and the supernatant was recovered for absorbance spectra analysis between 200-400 nm.

Setting [3] is: 1-octanol/phosphate buffer, read-out: LogD.

pEC50, pIC50: −log10 of the molar value. In brackets after ≈: the same amount, converted by molar mass. Where two headings read alike, the source gives them in different places.

T1 sequence (Q8NER1 whole entry): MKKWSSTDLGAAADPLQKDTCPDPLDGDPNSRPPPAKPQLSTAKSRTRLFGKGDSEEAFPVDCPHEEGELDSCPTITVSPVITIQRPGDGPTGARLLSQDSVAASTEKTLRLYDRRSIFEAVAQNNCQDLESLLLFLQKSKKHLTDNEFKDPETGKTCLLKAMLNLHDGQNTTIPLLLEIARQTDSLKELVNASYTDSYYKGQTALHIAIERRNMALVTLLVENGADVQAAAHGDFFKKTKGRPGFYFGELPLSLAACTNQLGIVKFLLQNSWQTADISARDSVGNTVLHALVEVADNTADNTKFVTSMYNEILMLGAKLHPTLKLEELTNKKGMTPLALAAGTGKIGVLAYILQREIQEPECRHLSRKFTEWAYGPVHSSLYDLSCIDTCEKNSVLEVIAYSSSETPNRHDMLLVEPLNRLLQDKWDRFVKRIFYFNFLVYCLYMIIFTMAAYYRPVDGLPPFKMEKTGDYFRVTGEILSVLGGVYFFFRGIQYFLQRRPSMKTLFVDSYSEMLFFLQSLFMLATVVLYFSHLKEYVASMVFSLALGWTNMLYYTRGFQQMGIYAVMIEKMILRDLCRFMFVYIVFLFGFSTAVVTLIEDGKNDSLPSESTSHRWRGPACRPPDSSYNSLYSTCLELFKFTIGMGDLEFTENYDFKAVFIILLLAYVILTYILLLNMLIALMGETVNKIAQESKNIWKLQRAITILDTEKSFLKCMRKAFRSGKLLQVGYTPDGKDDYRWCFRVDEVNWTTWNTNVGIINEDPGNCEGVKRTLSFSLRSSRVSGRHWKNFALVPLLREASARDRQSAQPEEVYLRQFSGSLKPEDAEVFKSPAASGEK
T2 sequence (O43525 whole entry): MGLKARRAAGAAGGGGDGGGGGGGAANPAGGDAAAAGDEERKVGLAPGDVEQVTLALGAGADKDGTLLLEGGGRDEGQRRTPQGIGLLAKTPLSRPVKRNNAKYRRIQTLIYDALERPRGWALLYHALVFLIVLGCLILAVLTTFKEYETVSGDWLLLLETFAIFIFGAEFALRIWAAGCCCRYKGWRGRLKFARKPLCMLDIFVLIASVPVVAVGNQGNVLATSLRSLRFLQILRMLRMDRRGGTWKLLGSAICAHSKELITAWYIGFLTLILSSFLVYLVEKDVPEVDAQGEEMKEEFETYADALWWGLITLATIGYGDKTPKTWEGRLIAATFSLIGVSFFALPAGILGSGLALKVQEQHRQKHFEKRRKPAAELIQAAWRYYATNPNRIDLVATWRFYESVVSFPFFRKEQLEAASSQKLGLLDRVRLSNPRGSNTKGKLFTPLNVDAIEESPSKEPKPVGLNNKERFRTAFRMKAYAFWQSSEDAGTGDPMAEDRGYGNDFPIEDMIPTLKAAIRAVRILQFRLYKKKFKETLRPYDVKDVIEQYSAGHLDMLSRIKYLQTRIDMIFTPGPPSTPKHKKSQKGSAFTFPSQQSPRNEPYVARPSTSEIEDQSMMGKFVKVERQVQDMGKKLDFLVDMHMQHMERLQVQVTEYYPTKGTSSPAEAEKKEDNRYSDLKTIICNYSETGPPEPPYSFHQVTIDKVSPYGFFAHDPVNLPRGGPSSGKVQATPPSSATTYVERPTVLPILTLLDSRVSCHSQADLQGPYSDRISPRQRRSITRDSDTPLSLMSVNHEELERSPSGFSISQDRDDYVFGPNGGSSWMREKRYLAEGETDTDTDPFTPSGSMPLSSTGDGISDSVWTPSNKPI
T2 sequence (O43526 whole entry): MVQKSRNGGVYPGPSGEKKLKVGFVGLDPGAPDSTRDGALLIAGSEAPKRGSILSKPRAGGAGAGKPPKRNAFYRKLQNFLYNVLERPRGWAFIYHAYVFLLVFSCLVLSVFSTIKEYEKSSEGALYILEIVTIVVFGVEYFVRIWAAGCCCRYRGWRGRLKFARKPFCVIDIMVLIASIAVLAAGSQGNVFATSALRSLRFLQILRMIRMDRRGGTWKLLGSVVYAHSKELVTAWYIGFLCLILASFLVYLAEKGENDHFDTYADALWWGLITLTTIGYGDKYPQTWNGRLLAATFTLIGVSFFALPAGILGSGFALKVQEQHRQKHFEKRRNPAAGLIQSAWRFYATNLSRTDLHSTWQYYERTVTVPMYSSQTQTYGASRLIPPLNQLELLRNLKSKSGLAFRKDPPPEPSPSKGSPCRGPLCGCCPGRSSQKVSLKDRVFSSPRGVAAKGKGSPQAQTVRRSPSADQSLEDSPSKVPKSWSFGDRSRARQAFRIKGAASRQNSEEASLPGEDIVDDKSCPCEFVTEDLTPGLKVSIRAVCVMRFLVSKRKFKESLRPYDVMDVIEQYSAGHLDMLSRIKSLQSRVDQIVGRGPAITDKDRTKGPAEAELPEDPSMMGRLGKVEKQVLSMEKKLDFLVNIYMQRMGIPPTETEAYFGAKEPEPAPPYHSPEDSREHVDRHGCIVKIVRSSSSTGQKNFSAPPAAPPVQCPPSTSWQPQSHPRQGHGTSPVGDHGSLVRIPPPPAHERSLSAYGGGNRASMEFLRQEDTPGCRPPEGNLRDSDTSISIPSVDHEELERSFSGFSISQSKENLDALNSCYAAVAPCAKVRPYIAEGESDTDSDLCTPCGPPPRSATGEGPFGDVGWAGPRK

Regarding `CC(C)(C)c1cn(-c2cncc(CC(=O)N[C@@H]3COC[C@H]3O)c2)c2c(Cl)cc(Cl)cc12` [Compound 800], the half-life at 1 µM in data set [1] came out at 15.4 min. The “CYP-TDI (midazolam), (−)NADPH/(+)NADPH Ratio CYP3A4” value in the data set on CYP3A4 is greater than 2.67. Further, the logD in data set [2] (setting [3]) was greater than 4.1.
For `O=C(Cc1cncc(-n2cc(C(F)(F)F)c3cc(Cl)cc(Cl)c32)c1)N[C@@H]1COC[C@H]1O` [Compound 770] the same measures were 34.8 min, greater than 1.9 and 3.88.
For `O=C(Cc1cncc(-n2cc(C3CC3)c3cc(Cl)cc(Cl)c32)c1)N[C@@H]1COC[C@H]1O` [Compound 790] the same measures were 26.7 min, 2.04 and 4.29.
Consider `CC(C)c1cc(Cl)cc(Cl)c1C(=O)c1ccc(F)c(CC(=O)NCC2(O)CCC2)c1` [Compound 569], for which the microsomal CLint at 1 µM in data set [1] (read-out: HLM Clint) came out at 120 µL/min/mg. In addition, the pIC50 on hTRPV1 is 5.00. Moreover, at hKv7.2/3, the pEC50 is 5.52. Further, in the data set “Kinetic solubility”, the solubility kinetic was 27 µM (≈ 12.2 µg/mL). The logD in data set [2] (setting [3]) was found to be 4.47.
For the compound `CC1(C)CN(c2cncc(CC(=O)NC3COCC3O)c2)c2c(Cl)cc(Cl)cc21` (centres unmarked) [Compound 720], the “HLM T1/2” value in data set [1] is 6.1 min. The “CYP-TDI (midazolam), (−)NADPH/(+)NADPH Ratio CYP3A4” value in the data set on CYP3A4 is on record as greater than 1.6. Also, in data set [2], the log distribution coefficient (logD) was 3.24.
For `O=C(Cc1cncc(N2CC3(CC3)c3cc(Cl)cc(Cl)c32)c1)NC1COCC1O` (centres unmarked) [Compound 730] the same measures were 9.9 min, greater than 1.57 and 3.22.

What is called logD is lipophilicity at a set pH, counting ionised and neutral species. A word on the pIC50: it is −log10 of the IC50, conventionally taken in molar units.
